# Experimental data taken from patent US20030017976A1, “Therapeutic properties of liposome-encapsulated immunomodulators” (priority 1998, published 2003).
# Values joined by “and” are separate entries in the source; they are usually repeats but may differ in a detail not shown here. Equal entries are not always repeated. Marks after values point to notes of the source that are not given here.
# Assays:
# human monocytes [1] = assay: Western blot of tyrosine phosphorylation, JNK1 band shift, MAP kinase activation in monocytes; format: cell-based; settings: 20 min
# Protocol: After two washes with PBS containing 1 mM Na3 VO4 and 5 mM EDTA, the cells were scraped into 0.1 ml lysis buffer (1% Triton X-100, 20 mM Tris pH 8.0, 137 MM NaCl, 10% glycerol, 1 mM Na3 VO4, 2 mM EDTA, 1 mM PMSF, 20 μM leupeptin, 0.15 U/ml aprotinin). The lysate was placed on ice for 20 min and then centrifuged at 14,000 rpm for 10 min at 4° C. The samples (50 μg) were mixed with sample buffer (62.5 mM Tris/HCl, pH 6.8, 2.3% SDS, 100 mM DTT, and 0.05% bromophenol blue), boiled and, separated on 10% SDS-PAGE. The protein was then transferred onto 0.45 μm nitrocellulose membranes. The filter was blocked with 3% BSA and 1% ovalbumin (ICN Biomedicals, Inc.) in TBS (20 mM Tris/HCl, pH 7.5, 150 mM NaCl), probed with antibodies as indicated in the Results in TTBS (TBS containing 0.1% Tween 20), incubated with a second antibody in the buffer, and visualized by the ECL Western blotting detection system (Dong, Z., et al. J Exp. Med. (1993) 177:1071; Dong, Z. et al. J. Leukoc. Biol. (1993) 58:725).
# [2] = system: L3.6pl human pancreatic tumors; assay: Therapy of L3.6pl human pancreatic tumors in nude mice; format: in vivo, mouse; settings: CPT-11 100 mg/kg i.p. once a week +/− oral JBT 3002 (tablet) 0.05 mcg/dose
# Protocol: Table 19 (A, B, C). Therapy of human pancreatic carcinoma liver metastasis. The pancreas of nude mice were injected with 1×10^6 viable human pancreatic cancer L3.6pl cells. […] This regimen was repeated on a weekly basis for 3 weeks. The mice were killed. Pancreatic tumors, liver metastases, and lymph node metastasis were quantified.
# C57BL/6 mice = assay: Prevention of CPT-11 induced intestinal damage and morbidity by oral immunomodulator; format: in vivo, mouse; settings: oral saline or JBT3002 0.1, 1.0 and 10 μg/dose in PC liposomes, then CPT-11 100 mg/kg i.p. 4 days
# Protocol: Experimental Design and Methods. […] Tissue was harvested 7 days after the last injection (small intestine and colon distal to the cecum). Histology was prepared. Some mice were monitored for the presence of drug toxicity.
# Example 6 has shown that 100, 150, and 200 mg/kg at 4 consecutive i.p. administrations are highly toxic to C57BL/6 mice.
# TG-Mø from C57BL/6 mice = assay: NO production in TG macrophages by free-form and tablet JBT 3002; format: cell-based, mouse; settings: 24 hr
# Protocol: Preparation of tablet to free-form in water. Tablet placed in 10 ml sterile, pyrogen-free water for 2-3 min with shaking at room temperature, then 10 ml more water added using Lot PCOO2.115. At 100 μg/tablet, this gave 5 ug/ml active material. Solution opaque with “carrier”-appearing material. Settled to bottom. Placed at 37° C. for about 5 min. pH tested at 8.0. Two aliquots of 10 ml taken. One aliquot was taken to pH 1.5 by a single drop of concentrated HCl. Both samples were placed in a water bath at 37° C. for 30 min. The low pH sample was restored to pH 7.7 with NaOH (took about 5 drops of the NaOH, IN solution). The samples were brought to 50 ml by addition of water, and the final pH was 8.0 for the original and 7.43 for the low pH sample. The solutions were still slightly opaque and filtering with a 0.2 micron filter cleared the solution. Aliquots of about 25 ml were measured in an assay for NO production by macrophages and testing of the working dilution for endotoxin.
# IL-15 [3] = assay: Ileum and liver lesion histology, BrdUrd and IL-15 expression after JBT 3002 and CPT-11; format: in vivo, mouse; settings: mouse, in vivo
# Protocol: BALB/c mice were injected with CT-26 colon cancer cells into the spleen. […] Four days after the last injection of CPT-11, some mice were killed and their ileum was harvested and prepared for histology, immunohistochemistry, and molecular biology analyses.
# IL-15 [4] = assay: RT-PCR of IL-15 in PEM and IEC6 cells; format: cell-based
# Excerpt: To determine whether macrophages or epithelial cells respond to JBT 3002 by upregulating IL-1 5, the RT-PCR technique was used and the results are shown in FIG. 23.
# human monocytes [5] = assay: Northern blot of cytokine mRNA in monocytes; format: cell-based; settings: LPS 100 ng/ml, MLV-JBT3002 500 nmol/ml, JBT3002 1 ng/ml; 1-3 h
# Protocol: Total RNA was extracted using Tri reagent™ kit according to the manufacturer's instructions (Molecular Research Center, Inc., Cincinnati, Ohio). […] Cytokine and GAPDH and mRNA were detected using cDNA probes of Human TNF-α, IL-1β, IL-6 and rat glyceraldehyde-3-phosphate dehydrogenase (GAPDH) labeled by nick translation with α-^32P-CTP. Hybridizations were performed as described (Dong, Z. et al. J Natl. Cancer Inst. (1994) 86:913).
# CT-26 colon carcinoma = assay: Therapy of experimental liver metastasis of CT-26 colon carcinoma with CPT-11 and oral JBT 3002
# [6] = Table 15, oral JBT 3002 0.05 μg/dose 3 consecutive days and/or CPT-11 100 mg/kg 4 daily i.p., day 21
# [7] = Table 16, oral JBT3002 0.05 μg dose thrice weekly 3 weeks and/or CPT-11 100 mg/kg i.p. once a week, day 24
substance,measurement,setting,value
N-hexadecanol-S-[2(R)-3-diodecanoyloxypropyl]-L-cysteinyl-L-alanyl-D-isoglutaminyl-glycyl-taurine sodium salt [JBT3002],potency in triggering intracellular signaling pathways,human monocytes [1],significantly more potent than LPS
same,Incidence LN met,[2]; 31 days,7/10
same,Incidence WT/PC,[2]; 31 days,3/10
same,Incidence liver met,[2]; 31 days,2/9
same,"Tumor weight, Average",[2]; 31 days,706.22 mg
same,"Tumor weight, Max",[2]; 31 days,981 mg
same,"Tumor weight, Median",[2]; 31 days,733 mg
same,"Tumor weight, Min",[2]; 31 days,362 mg
same,tumor weight (range),[2]; 31 days,(362-981) mg
same,"Tumor weight, single animals","[2]; 31 days after tumor cell injection, sodium salt",862 mg and 871 mg and 981 mg and 621 mg and 362 mg and 733 mg and 559 mg and 820 mg and 547 mg
same,intestinal toxicity (histology),C57BL/6 mice,the intestines were normal
same,nitrite,"TG-Mø from C57BL/6 mice; Table 17, JBT 0.003 ng/ml, IFN-γ (10 U/ml)",17.5 µM
same,nitrite,"TG-Mø from C57BL/6 mice; Table 17, JBT 0.003 ng/ml, medium",0 µM
same,nitrite,"TG-Mø from C57BL/6 mice; Table 17, JBT 0.016 ng/ml, IFN-γ (10 U/ml)",33.7 µM
same,nitrite,"TG-Mø from C57BL/6 mice; Table 17, JBT 0.016 ng/ml, medium",0 µM
same,nitrite,"TG-Mø from C57BL/6 mice; Table 17, JBT 0.08 ng/ml, IFN-γ (10 U/ml)",41 µM
same,nitrite,"TG-Mø from C57BL/6 mice; Table 17, JBT 0.08 ng/ml, medium",0 µM
same,nitrite,"TG-Mø from C57BL/6 mice; Table 17, JBT 0.4 ng/ml, IFN-γ (10 U/ml)",44.7 µM
same,nitrite,"TG-Mø from C57BL/6 mice; Table 17, JBT 0.4 ng/ml, medium",0 µM
same,nitrite,"TG-Mø from C57BL/6 mice; Table 17, JBT 2 ng/ml, IFN-γ (10 U/ml)",53.1 µM
same,nitrite,"TG-Mø from C57BL/6 mice; Table 17, JBT 2 ng/ml, medium",0 µM
same,nitrite,"TG-Mø from C57BL/6 mice; Table 17, JBT 10 ng/ml, IFN-γ (10 U/ml)",60.9* μM
same,nitrite,"TG-Mø from C57BL/6 mice; Table 17, JBT 10 ng/ml, medium",8.4 µM
same,nitrite,"TG-Mø from C57BL/6 mice; Table 18, JBT3002 0.0001 ng/ml, 10 U/ml IFN-γ",0
same,nitrite,"TG-Mø from C57BL/6 mice; Table 18, JBT3002 0.0001 ng/ml, medium",0
same,nitrite,"TG-Mø from C57BL/6 mice; Table 18, JBT3002 0.001 ng/ml, 10 U/ml IFN-γ",8.5
same,nitrite,"TG-Mø from C57BL/6 mice; Table 18, JBT3002 0.001 ng/ml, medium",0
same,nitrite,"TG-Mø from C57BL/6 mice; Table 18, JBT3002 0.01 ng/ml, 10 U/ml IFN-γ",19.5
same,nitrite,"TG-Mø from C57BL/6 mice; Table 18, JBT3002 0.01 ng/ml, medium",0
same,nitrite,"TG-Mø from C57BL/6 mice; Table 18, JBT3002 0.1 ng/ml, 10 U/ml IFN-γ",27.7
same,nitrite,"TG-Mø from C57BL/6 mice; Table 18, JBT3002 0.1 ng/ml, medium",0
same,nitrite,"TG-Mø from C57BL/6 mice; Table 18, JBT3002 1 ng/ml, 10 U/ml IFN-γ",37.7
same,nitrite,"TG-Mø from C57BL/6 mice; Table 18, JBT3002 1 ng/ml, medium",0
same,nitrite,"TG-Mø from C57BL/6 mice; Table 18, JBT3002 10 ng/ml, 10 U/ml IFN-γ",47.1
same,nitrite,"TG-Mø from C57BL/6 mice; Table 18, JBT3002 10 ng/ml, medium",0.5
same,expression of IL-15 in the ileum,IL-15 [3],restores or augments this expression
same,IL-15 expression in response to JBT 3002 (RT-PCR),IL-15 [4],"Peritoneal exudate macrophages (PEM), but not intestinal cells (IEC6), upregulate IL-15 expression"
same,"mRNA for TNF-α, IL-1β, and IL-6",human monocytes [5],"High levels of mRNA for TNF-α, IL-1β, and IL-6"
same,dose producing similar therapeutic effects as 1.0 μg/dose of MLV-JBT 3002,CT-26 colon carcinoma; Table 11,0.01 μg/dose
same,Liver metastasis Incidence,CT-26 colon carcinoma; [6],9/10
same,Liver weight,CT-26 colon carcinoma; [6],1.6 ± 0.2^e g
same,Spleen tumor Incidence,CT-26 colon carcinoma; [6],10/10
same,Spleen tumor Mean tumor volume,CT-26 colon carcinoma; [6],88 ± 34^f mm^3
same,Liver metastasis Incidence,CT-26 colon carcinoma; [7],9/10
same,Liver weight,CT-26 colon carcinoma; [7],4.2 ± 1.6 g
same,Spleen tumor Incidence,CT-26 colon carcinoma; [7],8/10
same,Spleen tumor Mean tumor volume,CT-26 colon carcinoma; [7],241 ± 84 mm^3
same,potency relative to liposomal formulation,CT-26 colon carcinoma; Tables 12 and 14,more potent than liposomal formulation
